Measured values reported in paper PMC3771522 (Analytical chemistry, 2013).

Legend:
[1] = biological target: creatine phosphokinase; assay: fluorescence titration, hyperbolic single-site fit; settings: known ATP-binding protein for comparison
[2] = biological target: proliferating cell nuclear antigen (PCNA) (Homo sapiens, UniProt P12004); assay: fluorescence titration, hyperbolic single-site fit; type: binding; settings: constant PCNA, increasing TNP-ATP
Sequence of proliferating cell nuclear antigen (PCNA) (P12004 whole entry): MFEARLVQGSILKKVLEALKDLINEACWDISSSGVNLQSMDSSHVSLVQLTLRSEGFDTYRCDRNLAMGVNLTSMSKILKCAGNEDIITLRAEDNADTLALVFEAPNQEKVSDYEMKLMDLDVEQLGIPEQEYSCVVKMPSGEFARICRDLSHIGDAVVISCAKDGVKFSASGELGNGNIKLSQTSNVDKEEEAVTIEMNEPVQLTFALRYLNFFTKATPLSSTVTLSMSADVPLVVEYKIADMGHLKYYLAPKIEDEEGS

Substance: TNP-ATP
- Kd [1]: 27 µM
- Kd [2]: 13 µM
